Laboratory results published in patent publication US11000033B2, “Ketone or oxime compound, and herbicide” (NISSAN CHEMICAL CORPORATION, priority 2014, dated 2021).

Experiments:
Format in all cases: in vivo
Lolium multiflorum Lam. = test: Test Example 4: herbicidal effect by soil treatment (symbol K); settings: application herbicide amount 320 g/ha
Method in brief: (§1)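 Seeds were sown in sterilized diluvial soil, covered with about 1.5 cm of soil, and the soil surface was sprayed with a water-diluted emulsion of the compound at a predetermined rate. Plants grew in a greenhouse at 25° C. to 30° C.; effects were scored visually 3 weeks after application.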

[1] = system: Echinochloa crus-galli var. crus-galli; test: Test Example 3: herbicidal effect by foliage application, Wagner pot (symbol H); settings: application herbicide amount 320 g/ha
Method in brief: (§2)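 Rating at 3 weeks post-spray, by defined criteria. Treatment: emulsion diluted with water to a predetermined amount, applied evenly to foliage of 14-day-old plants raised in alluvial soil flooded 0.1–0.5 cm deep at 25–30 °C, rice co-sown.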

Setaria viridis [2] = test: Test Example 5: herbicidal effect by foliage application, plastic box (symbol G); settings: 320 g/ha, 3 weeks after application
Method in brief: (§3)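 Sowing in sterilized diluvial soil, 14 days' greenhouse growth at 25° C. to 30° C., then uniform small-sprayer foliar application of aqueous emulsion dilution; plants scored three weeks afterwards.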

rice plant = test: Test Example 5: effect on crop by foliage application, plastic box (symbol b); settings: 320 g/ha, 3 weeks after application
Method in brief: (§4)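 Diluvial soil, sterilized and boxed (21 × 13 × 7 cm), received spot-sown seed covered by about 1.5 cm soil; plants were then greenhouse-grown at 25–30° C.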

Abutilon theophrasti [3] = test: Test Example 4: herbicidal effect by soil treatment (symbol M); settings: application herbicide amount 320 g/ha
Method in brief: as §1

Veronica persica = test: Test Example 4: herbicidal effect by soil treatment (symbol R); settings: application herbicide amount 320 g/ha
Method in brief: as §1

Chenopodium album = test: Test Example 4: herbicidal effect by soil treatment (symbol O); settings: application herbicide amount 320 g/ha
Method in brief: as §1

beet = test: Test Example 5: effect on crop by foliage application, plastic box (symbol f); settings: 320 g/ha, 3 weeks after application
Method in brief: as §4

Setaria viridis [4] = test: Test Example 4: herbicidal effect by soil treatment (symbol G); settings: application herbicide amount 320 g/ha
Method in brief: as §1

Avena fatua = test: Test Example 5: herbicidal effect by foliage application, plastic box (symbol I); settings: 320 g/ha, 3 weeks after application
Method in brief: as §3

Stellaria media [5] = test: Test Example 4: herbicidal effect by soil treatment (symbol P); settings: application herbicide amount 320 g/ha
Method in brief: as §1

Amaranthus retroflexus = test: Test Example 4: herbicidal effect by soil treatment (symbol N); settings: application herbicide amount 320 g/ha
Method in brief: as §1

Apera spica-venti = test: Test Example 5: herbicidal effect by foliage application, plastic box (symbol L); settings: 320 g/ha, 3 weeks after application
Method in brief: as §3

Digitaria ciliaris = test: Test Example 4: herbicidal effect by soil treatment (symbol F); settings: application herbicide amount 320 g/ha
Method in brief: as §1

transplanted rice plant = test: Test Example 1: effect on crop, application before weed generation in submerged conditions (symbol a); settings: application herbicide amount 320 g/ha
Method in brief: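 Alluvial soil pots flooded to 4 cm water, sown with Echinochloa oryzacola, Scirpus juncoides and Monochoria vaginalis, then transplanted with 2.5 leaf stage rice seedlings; pre-emergence application. Greenhouse 25° C. to 30° C.; scored 0–5 by herbicidal ratio 3 weeks after application.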

[6] = system: directly sowed rice plant; test: Test Example 3: effect on crop by foliage application, Wagner pot (symbol b); settings: application herbicide amount 320 g/ha
Method in brief: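 Steps: fill a 1/10000-are Wagner pot with alluvial soil; add water and mix to submerge at 0.1–0.5 cm depth; sow rice plus Echinochloa crus-galli var. crus-galli, Leptochloa chinensis and Cyperus difformis; grow in a 25–30 °C greenhouse.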

Leptochloa chinensis = test: Test Example 3: herbicidal effect by foliage application, Wagner pot (symbol D); settings: application herbicide amount 320 g/ha
Method in brief: as §2

rapeseed = test: Test Example 5: effect on crop by foliage application, plastic box (symbol g); settings: 320 g/ha, 3 weeks after application
Method in brief: as §4

[7] = system: Echinochloa crus-galli var. crus-galli; test: Test Example 5: herbicidal effect by foliage application, plastic box (symbol H); settings: 320 g/ha, 3 weeks after application
Method in brief: as §3

Galium spurium = test: Test Example 4: herbicidal effect by soil treatment (symbol Q); settings: application herbicide amount 320 g/ha
Method in brief: as §1

Abutilon theophrasti [8] = test: Test Example 5: herbicidal effect by foliage application, plastic box (symbol M); settings: 320 g/ha, 3 weeks after application
Method in brief: as §3

Stellaria media [9] = test: Test Example 5: herbicidal effect by foliage application, plastic box (symbol P); settings: 320 g/ha, 3 weeks after application
Method in brief: as §3

`CON=C(C)CC1CC(O)=C(c2c(C)cccc2C)C1=O` (stereo not shown) [6-112] was tested, and the “Herbicidal effect grade, K: Lolium multiflorum Lam.” value (Lolium multiflorum Lam.) was 5 (Herbicidal ratio of 90% or more (almost completely withered)), the “herbicidal effect on H (Echinochloa crus-galli var. crus-galli), grade 0-5” value [1] was 5 (Herbicidal ratio of 90% or more (almost completely withered)) and the “G: Setaria viridis, herbicidal effect (criteria of Test Example 1)” value (Setaria viridis [2]) was 5 (Herbicidal ratio of 90% or more (almost completely withered)). For the same compound, the “b: directly sowed rice plant, effect on crop (criteria of Test Example 1)” value (rice plant) was 5 (Herbicidal ratio of 90% or more (almost completely withered)), the “Herbicidal effect grade, M: Abutilon theophrasti” value (Abutilon theophrasti [3]) was 1 (Herbicidal ratio of 5% or higher and lower than 20%) and the “Herbicidal effect grade, R: Veronica persica” value (Veronica persica) was 0 (Herbicidal ratio of 5% or lower (almost no effect)). The “Herbicidal effect grade, O: Chenopodium album” value (Chenopodium album) was 0 (Herbicidal ratio of 5% or lower (almost no effect)), the “f: beet, effect on crop (criteria of Test Example 1)” value (beet) was 0 (Herbicidal ratio of 5% or lower (almost no effect)) and the “Herbicidal effect grade, G: Setaria viridis” value (Setaria viridis [4]) was 5 (Herbicidal ratio of 90% or more (almost completely withered)). For the same compound, the “I: Avena fatua, herbicidal effect (criteria of Test Example 1)” value (Avena fatua) was 5 (Herbicidal ratio of 90% or more (almost completely withered)), the “Herbicidal effect grade, P: Stellaria media” value (Stellaria media [5]) was 0 (Herbicidal ratio of 5% or lower (almost no effect)) and the “Herbicidal effect grade, N: Amaranthus retroflexus” value (Amaranthus retroflexus) was 1 (Herbicidal ratio of 5% or higher and lower than 20%). The “L: Apera spica-venti, herbicidal effect (criteria of Test Example 1)” value (Apera spica-venti) was 5 (Herbicidal ratio of 90% or more (almost completely withered)), the “Herbicidal effect grade, F: Digitaria ciliaris” value (Digitaria ciliaris) was 5 (Herbicidal ratio of 90% or more (almost completely withered)) and the “Effect grade on crop, a: transplanted rice plant” value (transplanted rice plant) was 4 (Herbicidal ratio of 70% or higher and lower than 90%). For the same compound, the “effect on crop b (directly sowed rice plant), grade 0-5” value [6] was 5 (Herbicidal ratio of 90% or more (almost completely withered)), the “herbicidal effect on D (Leptochloa chinensis), grade 0-5” value (Leptochloa chinensis) was 5 (Herbicidal ratio of 90% or more (almost completely withered)) and the “g: rapeseed, effect on crop (criteria of Test Example 1)” value (rapeseed) was 4 (Herbicidal ratio of 70% or higher and lower than 90%). The “H: Echinochloa crus-galli var. crus-galli, herbicidal effect (criteria of Test Example 1)” value [7] was 5 (Herbicidal ratio of 90% or more (almost completely withered)), the “Herbicidal effect grade, Q: Galium spurium” value (Galium spurium) was 0 (Herbicidal ratio of 5% or lower (almost no effect)) and the “M: Abutilon theophrasti, herbicidal effect (criteria of Test Example 1)” value (Abutilon theophrasti [8]) was 4 (Herbicidal ratio of 70% or higher and lower than 90%). For the same compound, the “P: Stellaria media, herbicidal effect (criteria of Test Example 1)” value (Stellaria media [9]) was 1 (Herbicidal ratio of 5% or higher and lower than 20%).
